System: 885512-296-R-J2-PDC complex spheroid growth, % test/control
Test: Anticancer human tumor 885512-296-R-J2-PDC patient-derived breast carcinoma cell line growth inhibition [AhR]
Details: for IC50: curve of first compound; for viability, T/C: stronger effect = lower value
Source text: Multicellular complex tumor spheroid response to aryl hydrocarbon receptor antagonists in combination with a variety of drugs and investigational agents in selected tumor cell lines
The current study was undertaken to assess response to aryl hydrocarbon receptor antagonists in combination with standard-of-care drugs and investigational agents in solid tumor complex spheroid models. Complex spheroids include a stromal component modeled by human endothelial cells (HUVEC) and fibroblasts modeled by human mesenchymal stem cells (MSCs). The concentration ranges selected for each drug and investigational agent were based upon clinically achievable concentrations if the clinical Cmax of the agent was known.
Compounds. The drugs and investigational agents: BAY 2416964 (NSC825713), GNF351 (NSC835774), CH-223191 (NSC835775), CPI-455 (NSC825282), aza-TdCyd (NSC777586), decitabine (NSC127716), belinostat (NSC758774), entinostat (NSC756642), pevonedistat (NSC761192), tazemetostat (NSC777109), talazoparib (NSC765396), olaparib (NSC753686), selinexor (NSC780203), nedisertib (M3814, NSC802822), bortezomib (NSC756655), venetoclax (NSC766270), doxorubicin (NSC123127), elimusertib (BAY189344, NSC800525), ceralasertib (AZD6738, NSC777638), TAK-243 (NSC785004), alisertib (NSC759677), etoposide (NSC141540), topotecan (NSC609699), eribulin (NSC707389), gemcitabine (NSC613327), carboplatin (NSC241240), cisplatin (NSC119875), and SN-38 (NSC673596) were obtained from the National Cancer Institute (NCI) Developmental Therapeutics Program Chemical Repository (32). The FDA-approved anticancer drug set is available from the Developmental Therapeutics Program at https://dtp.cancer.gov/organization/dscb/obtaining/available plates.htm. […] The stock solutions were prepared in dimethyl sulfoxide (DMSO, Sigma-Aldrich, St. Louis, MO, cat. D2650), except for the platinum compounds which were prepared in saline (Quality Biological, Gaithersburg, MD, cat. 114-055-101), at 800-fold the tested concentration and stored at -70 degrees C prior to their use. All drugs and investigational agents were tested over a range starting from a high concentration at or near the clinical Cmax and decreasing in half-log increments. If the clinical Cmax for an agent had not been determined, the highest concentration tested was 10 microM (Table 1).
Cell Culture. All cells were maintained in an incubator at 37 degrees C and 5% CO2 with 95% humidity. The PDC lines were cultured according to standard operating procedures established by the NCI PDMR (https://pdmr.cancer.gov). Briefly, all PDCs were thawed and cultured in Matrigel-coated flasks prepared with a working solution of 1X Ham's F-12 nutrient mix, without supplementation (Invitrogen, Waltham, MA, cat. 11765054), 100 U/mL penicillin-streptomycin (Invitrogen, cat. 15140122), and 2.5% Matrigel (Corning Inc., Corning, NY, cat. 354248) for the first three passages. All PDCs were cultured in complete DMEM/F-12 media containing advanced DMEM/F-12 (Invitrogen, cat. 12634028), 4.9% defined fetal bovine serum, heat inactivated (HyClone Laboratories Inc., Logan, UT, cat. SH30070.03HI), 389 ng/mL hydrocortisone (Sigma-Aldrich, cat. H4001), 9.7 ng/mL human EGF recombinant protein (Invitrogen, cat. PHG0313), 23.4 microg/mL adenine (Sigma-Aldrich, cat. A2786), 97.3 U/mL penicillin-streptomycin (Invitrogen, cat. 15140122), 1.9 mM L-glutamine (Invitrogen, cat. 25030081), and 9.7 microM Y-27632 dihydrochloride (Tocris Bioscience, Bristol, United Kingdom, cat. 1254). The PDCs were cultured in complete DMEM/F12 media without 10 microM Y-27632 dihydrochloride for at least two passages prior to the screen. The established cell lines NCI-H1341 and […] were cultured in DMEM/F-12, HEPES (Invitrogen, cat. 11330032), 5% defined fetal bovine serum (HyClone Laboratories Inc., cat. SH30070.03), ITS premix universal culture supplement [insulin (5 microg/mL), transferrin (5 microg/mL), and selenious acid (5 ng/mL)] […]

[1] = second compound 0.1 µM, first compound 0.0316 µM
[2] = second compound 0.1 µM, first compound 0.1 µM
[3] = second compound 0.1 µM, first compound 0.316 µM
[4] = second compound 0.1 µM, first compound 1 µM
[5] = second compound 0.1 µM, first compound 3.16 µM
[6] = second compound 0.1 µM, first compound 10 µM
[7] = second compound 0.316 µM, first compound 0.0316 µM
[8] = second compound 0.316 µM, first compound 0.1 µM
[9] = second compound 0.316 µM, first compound 0.316 µM
[10] = second compound 0.316 µM, first compound 1 µM
[11] = second compound 0.316 µM, first compound 3.16 µM
[12] = second compound 0.316 µM, first compound 10 µM
[13] = second compound 1 µM, first compound 0.0316 µM
[14] = second compound 1 µM, first compound 0.1 µM
[15] = second compound 1 µM, first compound 0.316 µM
[16] = second compound 1 µM, first compound 1 µM
[17] = second compound 1 µM, first compound 3.16 µM
[18] = second compound 1 µM, first compound 10 µM
[19] = second compound 3.16 µM, first compound 0.0316 µM
[20] = second compound 3.16 µM, first compound 0.1 µM
[21] = second compound 3.16 µM, first compound 0.316 µM
[22] = second compound 3.16 µM, first compound 1 µM
[23] = second compound 3.16 µM, first compound 3.16 µM
[24] = second compound 3.16 µM, first compound 10 µM
[25] = second compound 10 µM, first compound 0.0316 µM
[26] = second compound 10 µM, first compound 0.1 µM
[27] = second compound 10 µM, first compound 0.316 µM
[28] = second compound 10 µM, first compound 1 µM
[29] = second compound 10 µM, first compound 3.16 µM
[30] = second compound 10 µM, first compound 10 µM
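Also: spheroids exposed to compounds for seven days.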

| IC50 (second compound 0.1 µM) [nM] | IC50 (second compound 0.316 µM) [nM] | IC50 (second compound 1 µM) [nM] | IC50 (second compound 3.16 µM) [nM] | IC50 (second compound 10 µM) [nM] | SMILES | viability, T/C [1] [%] | viability, T/C [2] [%] | viability, T/C [3] [%] | viability, T/C [4] [%] | viability, T/C [5] [%] | viability, T/C [6] [%] | viability, T/C [7] [%] | viability, T/C [8] [%] | viability, T/C [9] [%] | viability, T/C [13] [%] | viability, T/C [14] [%] | viability, T/C [19] [%] | viability, T/C [20] [%] | viability, T/C [25] [%] | viability, T/C [26] [%] | other results |
| --- | --- | --- | --- | --- | --- | --- | --- | --- | --- | --- | --- | --- | --- | --- | --- | --- | --- | --- | --- | --- | --- |
| > 10000 | 9460 | > 10000 | > 10000 | 4760 | COc1ccc([C@@H](O)c2cc(-c3ncnc4cc(N5CCOCC5)ccc34)c(F)cc2Cl)nn1 + CC(CO)NC(=O)c1cc(-c2ccc(Cl)cc2)nn(-c2cnn(C)c2)c1=O | 85.7 | 97.2 | 91.2 | 90.7 | 73.2 | 50.2 | 94.1 | 92.1 | 82.8 | 103 | 112 | 89.6 | 92.1 | 88.1 | 83.6 | viability, T/C [10]: 86.3%; viability, T/C [11]: 63.6%; viability, T/C [12]: 49.5%; viability, T/C [15]: 95.6%; viability, T/C [16]: 91.2%; viability, T/C [17]: 78%; viability, T/C [18]: 51.4%; viability, T/C [21]: 91.5%; viability, T/C [22]: 74.2%; viability, T/C [23]: 68.6%; viability, T/C [24]: 51.3%; viability, T/C [27]: 83.2%; viability, T/C [28]: 72.1%; viability, T/C [29]: 56.6%; viability, T/C [30]: 38.1% |
| < 31.6 | < 31.6 | < 31.6 | < 31.6 | < 31.6 | Nc1ccn(C2OC(CO)C(O)C2(F)F)c(=O)n1 (stereo not given) + Cc1ccccc1N=Nc1ccc(NC(=O)c2ccnn2C)c(C)c1 | 3.22 | 3.21 | 3.37 | 3.91 | 5.19 | 4.82 | 3.01 | 3.13 | 3.98 | 3.39 | 3.19 | 3.31 | 3.09 | 3.17 | 3.46 | viability, T/C [10]: 4.91%; viability, T/C [11]: 7.26%; viability, T/C [12]: 4.9%; viability, T/C [15]: 5.43%; viability, T/C [16]: 5.88%; viability, T/C [17]: 5.6%; viability, T/C [18]: 6.93%; viability, T/C [21]: 5.1%; viability, T/C [22]: 5.57%; viability, T/C [23]: 4.88%; viability, T/C [24]: 5.93%; viability, T/C [27]: 4.17%; viability, T/C [28]: 4.62%; viability, T/C [29]: 5.33%; viability, T/C [30]: 5.12% |
| 4210 | 4240 | 4140 | 3050 | 288 | CC1(C)CCC(CN2CCN(c3ccc(C(=O)NS(=O)(=O)c4ccc(NCC5CCOCC5)c([N+](=O)[O-])c4)c(Oc4cnc5[nH]ccc5c4)c3)CC2)=C(c2ccc(Cl)cc2)C1 + Cc1ccccc1N=Nc1ccc(NC(=O)c2ccnn2C)c(C)c1 | 107 | 85.4 | 103 | 90.2 | 61.4 | 16.1 | 109 | 116 | 102 | 97.9 | 97.8 | 93.8 | 83.1 | 46.4 | 53.8 | viability, T/C [10]: 85.1%; viability, T/C [11]: 63.7%; viability, T/C [12]: 15.8%; viability, T/C [15]: 94.2%; viability, T/C [16]: 86%; viability, T/C [17]: 60.4%; viability, T/C [18]: 15.5%; viability, T/C [21]: 83.3%; viability, T/C [22]: 73.3%; viability, T/C [23]: 48.3%; viability, T/C [24]: 14.9%; viability, T/C [27]: 53.2%; viability, T/C [28]: 44.6%; viability, T/C [29]: 40.2%; viability, T/C [30]: 15.7% |
| 5.02 | 5.48 | 5.01 | 4.59 | 2.08 | CC[C@@]1(O)C(=O)OCc2c1cc1n(c2=O)Cc2cc3c(CN(C)C)c(O)ccc3nc2-1 + Cc1ccccc1N=Nc1ccc(NC(=O)c2ccnn2C)c(C)c1 | 8.84 | 6.78 | – | – | – | – | 8.71 | 7.03 | – | 8.48 | 8.35 | 9.81 | 7.76 | 9.21 | 7.45 | viability, T/C (second compound 0.1 µM, first compound 0.000316 µM): 109%; viability, T/C (second compound 0.1 µM, first compound 0.001 µM): 103%; viability, T/C (second compound 0.1 µM, first compound 0.00316 µM): 67.5%; viability, T/C (second compound 0.1 µM, first compound 0.01 µM): 23.7%; viability, T/C (second compound 0.316 µM, first compound 0.000316 µM): 113%; viability, T/C (second compound 0.316 µM, first compound 0.001 µM): 113%; viability, T/C (second compound 0.316 µM, first compound 0.00316 µM): 74.7%; viability, T/C (second compound 0.316 µM, first compound 0.01 µM): 23%; viability, T/C (second compound 1 µM, first compound 0.000316 µM): 117%; viability, T/C (second compound 1 µM, first compound 0.001 µM): 111%; viability, T/C (second compound 1 µM, first compound 0.00316 µM): 70.7%; viability, T/C (second compound 1 µM, first compound 0.01 µM): 18.9%; viability, T/C (second compound 3.16 µM, first compound 0.000316 µM): 107%; viability, T/C (second compound 3.16 µM, first compound 0.001 µM): 95.4%; viability, T/C (second compound 3.16 µM, first compound 0.00316 µM): 61.1%; viability, T/C (second compound 3.16 µM, first compound 0.01 µM): 26.5%; viability, T/C (second compound 10 µM, first compound 0.000316 µM): 54.6%; viability, T/C (second compound 10 µM, first compound 0.001 µM): 57.7%; viability, T/C (second compound 10 µM, first compound 0.00316 µM): 46.3%; viability, T/C (second compound 10 µM, first compound 0.01 µM): 21.4% |

Source: PubChem BioAssay AID1919006 (Molecular Pharmacology Branch, DTP, NCI, 2023)
